PubChem BioAssay AID1259407 (Chemical Carcinogenesis Research Information System (CCRIS), 2018)
Active and inactive are the calls of the source. The rule behind the calls is not given here.

System: CCRIS mutagenicity, Ames/micronucleus/aberration tests
Test: CCRIS mutagenicity studies

COc1cc(CNC(=O)CCCC/C=C/C(C)C)ccc1O
mutagenic call (End Point: IN VITRO CHROMOSOMAL ABERRATIONS, Test System: HUMAN LYMPHOCYTES, Metabolic Activation: NONE): inactive; negative | mutagenic call (End Point: IN VITRO CHROMOSOMAL ABERRATIONS, Test System: HUMAN LYMPHOCYTES, Metabolic Activation: RAT LIVER S-9, AROCLOR 1254): inactive; negative | mutagenic call (End Point: IN VITRO CHROMOSOMAL ABERRATIONS, Test System: HUMAN LYMPHOCYTES, Metabolic Activation: S-9): inactive; negative | mutagenic call (End Point: IN VITRO CHROMOSOMAL ABERRATIONS, Test System: HUMAN PERIPHERAL BLOOD LYMPHOCYTES, Metabolic Activation: NONE): inactive; negative | mutagenic call (End Point: IN VITRO CHROMOSOMAL ABERRATIONS, Test System: HUMAN PERIPHERAL BLOOD LYMPHOCYTES, Metabolic Activation: RAT, LIVER, S-9, AROCLOR 1254): inactive; negative | mutagenic call (End Point: IN VIVO MICRONUCLEUS, Test System: BONE MARROW ERYTHROCYTES, Species: MOUSE, Strain/Sex: CD-1/FEMALE, Route: GAVAGE): inactive; negative | mutagenic call (End Point: IN VIVO MICRONUCLEUS, Test System: BONE MARROW ERYTHROCYTES, Species: MOUSE, Strain/Sex: CD-1/MALE, Route: GAVAGE): inactive; negative | mutagenic call (End Point: IN VIVO MICRONUCLEUS, Test System: BONE MARROW POLYCHROMATIC ERYTHROCYTES, Species: MOUSE, Strain/Sex: CD-1/MALE, FEMALE, Route: GAVAGE): inactive; negative | mutagenic call (Test System: AMES SALMONELLA TYPHIMURIUM, Strain/Indicator: TA97, Metabolic Activation: NONE, Method: PREINCUBATION (20 MIN)): inactive; negative | mutagenic call (Test System: AMES SALMONELLA TYPHIMURIUM, Strain/Indicator: TA97, Metabolic Activation: S-9, Method: PREINCUBATION (20 MIN)): inactive; negative | mutagenic call (Test System: AMES SALMONELLA TYPHIMURIUM, Strain/Indicator: TA98, Metabolic Activation: HAMSTER, LIVER, S-9, AROCLOR 1254, Method: STANDARD PLATE): inactive; negative | mutagenic call (Test System: AMES SALMONELLA TYPHIMURIUM, Strain/Indicator: TA98, Metabolic Activation: NONE, Method: DIRECT PLATE): inactive; negative | mutagenic call (Test System: AMES SALMONELLA TYPHIMURIUM, Strain/Indicator: TA98, Metabolic Activation: NONE, Method: PREINCUBATION): inactive; negative | mutagenic call (Test System: AMES SALMONELLA TYPHIMURIUM, Strain/Indicator: TA98, Metabolic Activation: NONE, Method: PREINCUBATION (20 MIN)): inactive; negative | mutagenic call (Test System: AMES SALMONELLA TYPHIMURIUM, Strain/Indicator: TA98, Metabolic Activation: RAT LIVER S-9, AROCLOR 1254, Method: PREINCUBATION): inactive; negative | mutagenic call (Test System: AMES SALMONELLA TYPHIMURIUM, Strain/Indicator: TA98, Metabolic Activation: RAT LIVER S-9, AROCLOR 1254, Method: STANDARD PLATE): inactive; negative | mutagenic call (Test System: AMES SALMONELLA TYPHIMURIUM, Strain/Indicator: TA98, Metabolic Activation: RAT, LIVER, S-9, AROCLOR 1254, Method: DIRECT PLATE): inactive; negative | mutagenic call (Test System: AMES SALMONELLA TYPHIMURIUM, Strain/Indicator: TA98, Metabolic Activation: RAT, LIVER, S-9, AROCLOR 1254, Method: PREINCUBATION): inactive; negative | mutagenic call (Test System: AMES SALMONELLA TYPHIMURIUM, Strain/Indicator: TA98, Metabolic Activation: RAT, LIVER, S-9, AROCLOR, Method: STANDARD PLATE): active; positive | mutagenic call (Test System: AMES SALMONELLA TYPHIMURIUM, Strain/Indicator: TA98, Metabolic Activation: S-9, Method: PREINCUBATION (20 MIN)): inactive; negative | mutagenic call (Test System: AMES SALMONELLA TYPHIMURIUM, Strain/Indicator: TA100, Metabolic Activation: HAMSTER, LIVER, S-9, AROCLOR 1254, Method: STANDARD PLATE): inactive; negative | mutagenic call (Test System: AMES SALMONELLA TYPHIMURIUM, Strain/Indicator: TA100, Metabolic Activation: NONE, Method: DIRECT PLATE): inactive; negative | mutagenic call (Test System: AMES SALMONELLA TYPHIMURIUM, Strain/Indicator: TA100, Metabolic Activation: NONE, Method: PREINCUBATION): inactive; negative | mutagenic call (Test System: AMES SALMONELLA TYPHIMURIUM, Strain/Indicator: TA100, Metabolic Activation: NONE, Method: STANDARD PLATE): inactive; negative | mutagenic call (Test System: AMES SALMONELLA TYPHIMURIUM, Strain/Indicator: TA100, Metabolic Activation: RAT LIVER S-9, AROCLOR 1254, Method: PREINCUBATION): inactive; negative | mutagenic call (Test System: AMES SALMONELLA TYPHIMURIUM, Strain/Indicator: TA100, Metabolic Activation: RAT LIVER S-9, AROCLOR 1254, Method: STANDARD PLATE): inactive; negative | mutagenic call (Test System: AMES SALMONELLA TYPHIMURIUM, Strain/Indicator: TA100, Metabolic Activation: RAT, LIVER, S-9, AROCLOR 1254, Method: DIRECT PLATE): inactive; negative | mutagenic call (Test System: AMES SALMONELLA TYPHIMURIUM, Strain/Indicator: TA100, Metabolic Activation: RAT, LIVER, S-9, AROCLOR 1254, Method: PREINCUBATION): inactive; negative | mutagenic call (Test System: AMES SALMONELLA TYPHIMURIUM, Strain/Indicator: TA100, Metabolic Activation: S-9 (0.25 ML), Method: PREINCUBATION (20 MIN)): inactive; negative | mutagenic call (Test System: AMES SALMONELLA TYPHIMURIUM, Strain/Indicator: TA100, Metabolic Activation: S-9 (0.5 ML), Method: PREINCUBATION (60 MIN)): inactive; negative | mutagenic call (Test System: AMES SALMONELLA TYPHIMURIUM, Strain/Indicator: TA1535, Metabolic Activation: HAMSTER, LIVER, S-9, AROCLOR 1254, Method: STANDARD PLATE): inactive; negative | mutagenic call (Test System: AMES SALMONELLA TYPHIMURIUM, Strain/Indicator: TA1535, Metabolic Activation: NONE, Method: DIRECT PLATE): inactive; negative | mutagenic call (Test System: AMES SALMONELLA TYPHIMURIUM, Strain/Indicator: TA1535, Metabolic Activation: NONE, Method: PREINCUBATION): inactive; negative | mutagenic call (Test System: AMES SALMONELLA TYPHIMURIUM, Strain/Indicator: TA1535, Metabolic Activation: RAT LIVER S-9, AROCLOR 1254, Method: PREINCUBATION): inactive; negative | mutagenic call (Test System: AMES SALMONELLA TYPHIMURIUM, Strain/Indicator: TA1535, Metabolic Activation: RAT LIVER S-9, AROCLOR 1254, Method: STANDARD PLATE): inactive; negative | mutagenic call (Test System: AMES SALMONELLA TYPHIMURIUM, Strain/Indicator: TA1535, Metabolic Activation: RAT, LIVER, S-9, AROCLOR 1254, Method: DIRECT PLATE): inactive; negative | mutagenic call (Test System: AMES SALMONELLA TYPHIMURIUM, Strain/Indicator: TA1535, Metabolic Activation: RAT, LIVER, S-9, AROCLOR 1254, Method: PREINCUBATION): inactive; negative | mutagenic call (Test System: AMES SALMONELLA TYPHIMURIUM, Strain/Indicator: TA1537, Metabolic Activation: HAMSTER, LIVER, S-9, AROCLOR 1254, Method: STANDARD PLATE): inactive; negative | mutagenic call (Test System: AMES SALMONELLA TYPHIMURIUM, Strain/Indicator: TA1537, Metabolic Activation: NONE, Method: DIRECT PLATE): inactive; negative | mutagenic call (Test System: AMES SALMONELLA TYPHIMURIUM, Strain/Indicator: TA1537, Metabolic Activation: NONE, Method: PREINCUBATION): inactive; negative | mutagenic call (Test System: AMES SALMONELLA TYPHIMURIUM, Strain/Indicator: TA1537, Metabolic Activation: NONE, Method: STANDARD PLATE): inactive; negative | mutagenic call (Test System: AMES SALMONELLA TYPHIMURIUM, Strain/Indicator: TA1537, Metabolic Activation: RAT LIVER S-9, AROCLOR 1254, Method: PREINCUBATION): inactive; negative | mutagenic call (Test System: AMES SALMONELLA TYPHIMURIUM, Strain/Indicator: TA1537, Metabolic Activation: RAT LIVER S-9, AROCLOR 1254, Method: STANDARD PLATE): inactive; negative | mutagenic call (Test System: AMES SALMONELLA TYPHIMURIUM, Strain/Indicator: TA1537, Metabolic Activation: RAT, LIVER, S-9, AROCLOR 1254, Method: DIRECT PLATE): inactive; negative | mutagenic call (Test System: AMES SALMONELLA TYPHIMURIUM, Strain/Indicator: TA1537, Metabolic Activation: RAT, LIVER, S-9, AROCLOR 1254, Method: PREINCUBATION): inactive; negative | mutagenic call (Test System: AMES SALMONELLA TYPHIMURIUM, Strain/Indicator: TA1537, Metabolic Activation: RAT, LIVER, S-9, AROCLOR 1254, Method: STANDARD PLATE): inactive; negative | mutagenic call (Test System: AMES SALMONELLA TYPHIMURIUM, Strain/Indicator: TA1538, Metabolic Activation: HAMSTER, LIVER, S-9, AROCLOR 1254, Method: STANDARD PLATE): inactive; negative | mutagenic call (Test System: AMES SALMONELLA TYPHIMURIUM, Strain/Indicator: TA1538, Metabolic Activation: NONE, Method: STANDARD PLATE): inactive; negative | mutagenic call (Test System: AMES SALMONELLA TYPHIMURIUM, Strain/Indicator: TA1538, Metabolic Activation: RAT, LIVER, S-9, AROCLOR 1254, Method: STANDARD PLATE): inactive; negative | mutagenic call (Test System: CHINESE HAMSTER V-79, Strain/Indicator: V-79/8-AZAGUANINE, Metabolic Activation: NONE): inactive; negative | mutagenic call (Test System: CHINESE HAMSTER V-79, Strain/Indicator: V-79/8-AZAGUANINE, Metabolic Activation: RAT, LIVER, S-9, AROCLOR): inactive; negative | mutagenic call (Test System: E. COLI, Strain/Indicator: WP2UVRA, Metabolic Activation: NONE, Method: PREINCUBATION): inactive; negative | mutagenic call (Test System: E. COLI, Strain/Indicator: WP2UVRA, Metabolic Activation: NONE, Method: STANDARD PLATE): inactive; negative | mutagenic call (Test System: E. COLI, Strain/Indicator: WP2UVRA, Metabolic Activation: RAT LIVER S-9, AROCLOR 1254, Method: PREINCUBATION): inactive; negative | mutagenic call (Test System: E. COLI, Strain/Indicator: WP2UVRA, Metabolic Activation: RAT LIVER S-9, AROCLOR 1254, Method: STANDARD PLATE): inactive; negative | mutagenic call (Test System: E. COLI, Strain/Indicator: WP2UVRA, Metabolic Activation: RAT, LIVER, S-9, AROCLOR 1254, Method: DIRECT PLATE): inactive; negative | mutagenic call (Test System: E. COLI, Strain/Indicator: WP2UVRA, Metabolic Activation: RAT, LIVER, S-9, AROCLOR 1254, Method: PREINCUBATION): inactive; negative | mutagenic call (Test System: E.COLI, Strain/Indicator: WP2UVRA, Metabolic Activation: NONE, Method: DIRECT PLATE): inactive; negative | mutagenic call (Test System: MOUSE LYMPHOMA, Strain/Indicator: L5178Y (TK+/TK-), Metabolic Activation: RAT, LIVER, S-9, AROCLOR 1254, Method: SUSPENSION/PLATE): active; positive | mutagenic call (Test System: MOUSE LYMPHOMA, Strain/Indicator: L5178Y(TK+/-), Metabolic Activation: NONE, Method: SUSPENSION/PLATE (4 H EXPOSURE)): active; positive | mutagenic call (Test System: MOUSE LYMPHOMA, Strain/Indicator: L5178Y(TK+/-), Metabolic Activation: NONE, Method: SUSPENSION/PLATE (24 H EXPOSURE)): inactive; negative | mutagenic call (Test System: MOUSE LYMPHOMA, Strain/Indicator: L5178Y(TK+/-), Metabolic Activation: RAT LIVER S-9, AROCLOR 1254, Method: SUSPENSION/PLATE): active; positive
